Patent US5473051A, “Inhibition of Mac-1 receptor binding to fibrinogen using D30 homologs” (The Scripps Research Institute, priority 1991, dated 1995)
Several values for one entry are separate records, joined by “and”; a condition that tells them apart may be missing. Equal entries are not always repeated. Entries after “also recorded” stand apart in the source; their conditions may differ.

How the values were obtained:
Mac-1 receptor [1] = biological target: T1, Mac-1 receptor (Homo sapiens, UniProt P05107+P11215); assay: Inhibition of 125I-fibrinogen binding to THP-1 cells by polypeptide; set-up: Separate aliquots of the resuspended Mac-1 receptor-bearing neutrophils were stimulated with 10 μM of the chemotactic peptide; endogenous in cells; host or cells: neutrophils from blood of normal volunteers, stimulated with fMLP
T1 sequence (P05107 23-769, other chains not shown): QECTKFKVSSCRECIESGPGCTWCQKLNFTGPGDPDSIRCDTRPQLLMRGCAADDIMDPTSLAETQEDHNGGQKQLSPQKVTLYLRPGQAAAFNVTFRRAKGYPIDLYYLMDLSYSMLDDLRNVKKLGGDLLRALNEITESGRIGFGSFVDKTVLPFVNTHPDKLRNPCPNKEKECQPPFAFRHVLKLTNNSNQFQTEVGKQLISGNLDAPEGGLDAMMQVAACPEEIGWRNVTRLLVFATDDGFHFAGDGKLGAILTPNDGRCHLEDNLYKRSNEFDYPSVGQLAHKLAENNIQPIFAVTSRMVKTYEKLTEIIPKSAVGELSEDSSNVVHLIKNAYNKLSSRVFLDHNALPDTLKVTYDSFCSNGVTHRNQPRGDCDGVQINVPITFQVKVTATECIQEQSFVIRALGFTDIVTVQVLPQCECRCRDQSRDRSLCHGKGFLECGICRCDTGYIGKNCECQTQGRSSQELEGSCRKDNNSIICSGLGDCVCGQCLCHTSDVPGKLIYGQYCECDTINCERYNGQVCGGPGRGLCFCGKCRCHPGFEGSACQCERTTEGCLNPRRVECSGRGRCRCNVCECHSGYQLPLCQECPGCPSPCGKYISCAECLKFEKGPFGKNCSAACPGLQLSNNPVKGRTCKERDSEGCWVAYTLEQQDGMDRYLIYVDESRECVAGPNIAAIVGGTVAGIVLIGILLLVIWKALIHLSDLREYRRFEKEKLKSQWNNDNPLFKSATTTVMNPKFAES
Experimental: The specificity of the P1 polypeptide for the Mac-1 receptor on THP-1 cells was confirmed in assays where the binding of purified intact fibrinogen to THP-1 cells was inhibited by P1 but not by the irrelevant polypeptide, L10. The assays were performed as described in Example 6 with the exception that THP-1 cells prepared as described in Example 8D were used instead of neutrophils. The amount of polypeptide used in the assay ranged in concentration from 7 μg/ml up to 60 μg/ml.
The amount of radiolabelled fibrinogen bound to THP-1 cells was expressed as molecules/cell ×1000 and plotted on the ordinate against increasing polypeptide concentrations as shown in FIG. 7.

Mac-1 receptor [2] = biological target: T1, Mac-1 receptor; assay: Inhibition of 125I-P1 binding to THP-1 cells; set-up: Separate aliquots of the resuspended Mac-1 receptor-bearing neutrophils were stimulated with 10 μM of the chemotactic peptide; endogenous in cells; conditions: one hour
Experimental: Similar binding assays and inhibition thereof were performed using the monocytic cell line THP-1 (ATCC TIB 202, Bethesda, Md.). THP-1 cells were maintained in RPMI 1640 supplemented with 10% fetal bovine serum (HyClone, Logan, UT), 20 mM Hepes, 100 μg/ml gentamycin, 2 mM L-glutamine and 10 μM beta-mercaptoethanol. The competitive inhibitors evaluated in the assay to compete for the binding of the labeled P1 polypeptide to THP-1 cells included the following:D30 prepared as described in Example 1; the irrelevant polypeptide L10 described above; the monoclonal antibody IB4 which recognizes the beta subunit of the Mac-1 receptor (Wright et al., Proc. Natl. Acad. Sci., USA, 80:5699-5703 (1983); the monoclonal antibody M1/70 which recognizes the alpha subunit of the Mac-1 receptor (Ho et al., J. Biol. Chem., 258:2766-2769 (1983); and a monoclonal antibody against tissue factor as described by Morrisey et al., Thromb. Res., 52:247-261 (1988 ).
The assays in which D30 or polypeptides derived therefrom were performed as described above and in Example 6. The assays in which antibodies were used as competitive inhibitors were performed as described in Example 2C using 50 μg/ml of each antibody. […] The amount of binding of radiolabelled P1 polypeptide to THP-1 cells was measured after a […] maintenance period in the absence or presence of unlabelled competitors. […]

neutrophils or monocytes = assay: Cell attachment to polypeptide-coated wells; format: cell-based, human
Experimental: To determine the Mac-1 receptor-binding site on the gamma chain of D30, the synthetic polypeptides prepared above were separately evaluated in cell attachment assays. For these assays, wells of 96-well microtiter plates (Linbro/Titertek; Flow Laboratories, VA) were coated with 60 μl of a 1 mg/ml solution of individual synthetic polypeptides prepared above. The wells containing the dissolved polypeptides were maintained for 16 hours at 4° C. The wells were then washed twice with PBS and blocked for 30 minutes with 0.1% BSA in PBS. After a final wash, 100 μl of DMEM containing 1% fetal bovine serum and 2×10^5 cells/ml of either neutrophils or monocytes prepared respectively in Example 2B and Example 8D were admixed into each well. The cells were maintained for 30 minutes at room temperature to allow the cells to attach to the polypeptide-coated wells. Non-adherant cells were removed from the wells by washing twice with PBS. […]
Adherent cells were quantitated by staining with 0.5% crystal violet. […] The optical density (O.D.) at 550 nm was determined with an ELISA reader (Biotek Instruments). Non-specific adherence was determined by plating cells on BSA-coated wells for the appropriate period of time. Specific adhesion to a given polypeptide substrate was calculated by subtracting the O.D. obtained with cells plated on BSA from that observed for cells plated on individual polypeptides. […]

THP-1 cells = assay: Inhibition of THP-1 cell attachment to fibrinogen-coated wells; format: cell-based, human
Experimental: Cell attachment assays were performed to determine if the Plb polypeptide (SEQ ID NO 13) which was derived from the gamma chain of D30 from residue 195 to residue 201 would inhibit the binding of THP-1 cells to fibrinogen-coated plates as effectively as the larger polypeptide, P1 (SEQ ID NO 12). The assays were performed as described in Example 8C with the following modifications: the microtiter wells were coated with 10 μg/ml of fibrinogen overnight at room temperature to form fibrinogen-coated wells; the unoccupied sites on the wells were then blocked to prevent non-specific background with 3% gelatin for 30 minutes at room temperature; 2×10^5 THP-1 cells prepared as described in Example 8D2) were separately admixed with the polypeptides P1, […] and L10, the latter of which served as a control, ranging in concentration from 0.03 mg/ml to 1 mg/ml to form THP-1 cell-polypeptide admixtures; the resultant admixtures were maintained for 30 minutes at room temperature after which time the cells were admixed to the fibrinogen-coated plates as described in Example 8C.
The results of the inhibition of cell attachment assay are shown above in Table 2. The absorbance of crystal violet stain, indicating the relative number of cells that attached to the fibrinogen-coated wells, was measured at 600 nm. The absorbance values are tabulated in columns according to the concentration of each polypeptide separately tested in the assay. […] These six amino acid residues comprise the Mac-1 receptor binding site of fibrinogen.

Mac-1 receptor [3] = biological target: T1, Mac-1 receptor; assay: Binding of 125I-P1 to monocytes and competition; set-up: Separate aliquots of the resuspended Mac-1 receptor-bearing neutrophils were stimulated with 10 μM of the chemotactic peptide; endogenous in cells; host or cells: neutrophils from blood of normal volunteers, stimulated with fMLP
Experimental: Anticoagulated blood was prepared as described in Example 2B. After resuspending the pelleted erythrocytes, mononuclear and polynuclear cells with a volume equal to the starting blood volume with chilled 0.14M PBS, 35 ml of the cell suspension were layered onto 15 ml of Ficoll-Hypaque (Pharmacia) in a 50 ml polypropylene tube and centrifuged at 400×g for 40 minutes at room temperature. The cells at the interface were carefully removed with sterile plastic pipettes and were then washed two times with excess 5 mM PBS-EDTA (ethylene diamine tetracetic acid). The washed cells were then centrifuged first at 400×g for 20 minutes at 4° C., the pellet was resuspended as above, then the suspension was centrifuged again at 120×g for 12 minutes at 4° C. The cell pellet was again resuspended to form a PMBC cell suspension. […]
Human monocytes were purified from the platelet-free PMBC cell suspension as described by Fischer et al., Academic Press, Inc., New York, pp: 43-47 (1981). […] The purity of the monocyte preparation was greater than 90% as assessed by alpha-naphthyl acetate esterase staining and the viability was greater than 95% as judged by trypan blue exclusion. […]
The specific cell-associated binding of radiolabelled P1 to monocytes was measured over 60 minutes at 10 minute intervals and was calculated as described in Example 6. […]

Mac-1 receptor [4] = biological target: T1, Mac-1 receptor; assay: Competition of 125I-fibrinogen binding to stimulated neutrophils; set-up: Separate aliquots of the resuspended Mac-1 receptor-bearing neutrophils were stimulated with 10 μM of the chemotactic peptide; endogenous in cells; host or cells: neutrophils from blood of normal volunteers, stimulated with fMLP
Experimental: Fibrinogen was purified as described in Example 1 and radiolabelled as described for D30 in Example 2A. Mac-1 receptor-bearing neutrophils were prepared as described in 2B. Separate aliquots of stimulated neutrophils at a concentration of 1.5×10^7 cells/ml were simultaneously incubated with a predetermined subsaturating dose of ^125 I-labelled fibrinogen (50 μg/ml) and increasing concentrations of various competing proteins for 20 minutes at room temperature. The reaction in the admixture was terminated by centrifugation through silicon oils as described in Example 2. The amount of labelled Mac-1 receptor:fibrinogen complex was determined by gamma detection. Non-specific binding was calculated as described in Example 2 and subtracted from the total to calculate specific binding.
Unlabelled fibrinogen and fibrinogen fragments X, D:E and D obtained as described in Example 1A and B were evaluated for their ability to compete for labelled fibrinogen binding to stimulated neutrophils.
Fibrinogen fragments E and D30 obtained as described in Example 1B were evaluated for their ability to compete for labelled fibrinogen binding to stimulated neutrophils.

inhibition of fibrinogen binding to THP-1 cells (in words) (Mac-1 receptor [1]; 7 to 60 μg/ml polypeptide)	polypeptide concentration giving maximal inhibition of fibrinogen binding to THP-1 cells (Mac-1 receptor [1]; 7 to 60 μg/ml tested) [µg/mL]	total specific binding of P1 to THP-1 cells in the absence of competitors (Mac-1 receptor [2])	IC50 for inhibition of 125I-fibrinogen binding to stimulated neutrophils (Mac-1 receptor [4]; 50 μg/ml 125I-fibrinogen, 20 minutes at room temperature) [µg/mL]	competition of 125I-fibrinogen binding to stimulated neutrophils (in words) (Mac-1 receptor [4]; increasing concentrations of competitor)	Substance	promotion of cell attachment (in words) (neutrophils or monocytes)	inhibition of THP-1 cell attachment to fibrinogen (in words) (THP-1 cells; 0.03 to 1 mg/ml polypeptide)	polypeptide concentration giving maximal inhibition of THP-1 binding to fibrinogen (THP-1 cells; 0.03 to 1 mg/ml tested)	Absorbance at 600 nm (THP-1 cells attached to fibrinogen) (THP-1 cells; polypeptide 0.03 mg/ml)	Absorbance at 600 nm (THP-1 cells attached to fibrinogen) (THP-1 cells; polypeptide 0.125 mg/ml)	Absorbance at 600 nm (THP-1 cells attached to fibrinogen) (THP-1 cells; polypeptide 0.5 mg/ml)	Absorbance at 600 nm (THP-1 cells attached to fibrinogen) (THP-1 cells; polypeptide 0.60 mg/ml)	Absorbance at 600 nm (THP-1 cells attached to fibrinogen) (THP-1 cells; polypeptide 1.0 mg/ml)	competition of 125I-P1 binding to monocytes (Mac-1 receptor [3]; 1 mg/ml cold polypeptide)	binding of radiolabelled P1 to monocytes (Mac-1 receptor [3]; one hour assay, 20,000 cpm 125I-P1)	125I-fibrinogen specifically bound in the absence of competitors (Mac-1 receptor [4]; stimulated neutrophils, 50 μg/ml 125I-fibrinogen)
inhibited	20	approximately 16,000 cpm			KYGWTVFQKRLDGSV [P1, N-terminal lysine-tyrosine-glycine added]	promoting cells attachment	effective at inhibiting cell attachment at all concentrations	0,125 mg/ml	1.02	0.42	0.36	1.12	0.48	competitively inhibited; also recorded: competed	binds to monocytes in a non-saturable curve	
			25 to 50	compete	fibrinogen											80,200±8,000 molecules/cell and 99,600±4,500 molecules/cell
